Assay results reported in patent US10588317B2, “Isoxazoline-substituted benzamides and analogues as insecticides” (priority 2015, dated 2020).

Tests used:
Format in all cases: in vivo
Diabrotica balteata = Diabrotica balteata (corn root worm), sprayed maize sprouts; details: 96 h, application rate 200 ppm, L2 larvae, 4 days after infestation, read-out: effect in at least one of the two categories (mortality or growth inhibition)
Procedure, shortened: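 Maize sprouts on agar sprayed with aqueous dilutions of DMSO stocks, dried, then infested with L2 larvae (6–10 per well). Mortality and growth inhibition scored against untreated controls 4 days after infestation, at 200 ppm application rate.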

Euschistus heros = Euschistus heros (neotropical brown stink bug), sprayed soybean leaves; details: 120 h, application rate 200 ppm, N2 nymphs, 5 days after infestation, read-out: effect in at least one of the two categories (mortality or growth inhibition)
Procedure, shortened: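 Soybean leaves on agar sprayed with aqueous dilutions of DMSO stocks, dried, then infested with N2 nymphs. Mortality and growth inhibition scored against untreated samples 5 days after infestation; application rate 200 ppm.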

Myzus persicae = Myzus persicae (green peach aphid): feeding/contact activity; details: 144 h, application rate 200 ppm, aphid population of mixed ages, 6 days after infestation, read-out: mortality
Procedure: Sunflower leaf discs were placed onto agar in a 24-well microtiter plate and sprayed with aqueous test solutions prepared from 10'000 ppm DMSO stock solutions. After drying, the leaf discs were infested with an aphid population of mixed ages. The samples were assessed for mortality 6 days after infestation.

Plutella xylostella = Plutella xylostella (diamond back moth), artificial diet; details: 120 h, application rate 200 ppm, L2 larvae, 5 days after infestation, read-out: effect in at least one of the two categories (mortality or growth inhibition)
Procedure, shortened: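 Artificial diet in 24-well plates treated with aqueous test solutions made from 10'000 ppm DMSO stocks, dried, then infested with L2 larvae (10 to 15 per well). Mortality and growth inhibition scored against untreated samples 5 days after infestation; activity cut-off at least 80% in either category at 200 ppm.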

Spodoptera littoralis = Spodoptera littoralis (Egyptian cotton leaf worm), sprayed cotton leaf discs; details: foliar, 72 h, application rate 200 ppm, L1 larvae, 3 days after infestation, read-out: control (mortality, anti-feeding effect, growth inhibition)
Procedure, shortened: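 Cotton leaf discs on agar sprayed with aqueous test solutions made from 10'000 ppm DMSO stock; after drying, infested with five L1 larvae. Mortality, anti-feeding and growth inhibition scored versus untreated samples 3 days after infestation; control counted when any category exceeds untreated.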

Tetranychus urticae = Tetranychus urticae (two-spotted spider mite): feeding/contact activity; details: 192 h, application rate 200 ppm, mixed population (mobile stages), 8 days after infestation, read-out: mortality
Procedure: Bean leaf discs on agar in 24-well microtiter plates were sprayed with aqueous test solutions prepared from 10'000 ppm DMSO stock solutions. After drying the leaf discs were infested with a mite population of mixed ages. The samples were assessed for mortality on mixed population (mobile stages) 8 days after infestation.

Thrips tabaci = Thrips tabaci (onion thrips): feeding/contact activity; details: 144 h, application rate 200 ppm, Thrips population of mixed ages, 6 days after infestation, read-out: mortality
Procedure: Sunflower leaf discs were placed on agar in 24-well microtiter plates and sprayed with aqueous test solutions prepared from 10'000 ppm DMSO stock solutions. After drying the leaf discs were infested with a Thrips population of mixed ages. The samples were assessed for mortality 6 days after infestation.

CC(C)(C)OC(=O)NS(=O)(=O)N1C[C@@H](NC(=O)c2ccc(C3=NO[C@@](c4cc(Cl)cc(Cl)c4)(C(F)(F)F)C3)cc2Cl)CO1 [Compound A151, tert-butyl N-[(4R)-4-[[2-chloro-4-[(5S)-5-(3,5-dichlorophenyl)-5-(trifluoromethyl)-4H-isoxazol-3-yl]benzoyl]amino]isoxazolidin-2-yl]sulfonylcarbamate]
≥ 80%: percent effect (mortality or growth inhibition) at 200 ppm (Diabrotica balteata) | percent effect (mortality or growth inhibition) at 200 ppm (Euschistus heros) | mortality at 200 ppm (Myzus persicae) | percent effect (mortality or growth inhibition) at 200 ppm (Plutella xylostella) | mortality at 200 ppm (Spodoptera littoralis) | mortality at 200 ppm (Tetranychus urticae) | mortality at 200 ppm (Thrips tabaci)

CNS(=O)(=O)N1C[C@@H](NC(=O)c2ccc(C3=NO[C@](c4cc(Cl)c(OC(F)F)c(Cl)c4)(C(F)(F)F)C3)cc2C)CO1 [Compound A207, 4-[(5R)-5-[3,5-dichloro-4-(difluoromethoxy)phenyl]-5-(trifluoromethyl)-4H-1,2-oxazol-3-yl]-2-methyl-N-[(4R)-2-(methylsulfamoyl)-1,2-oxazolidin-4-yl]benzamide]
≥ 80%: percent effect (mortality or growth inhibition) at 200 ppm (Diabrotica balteata) | percent effect (mortality or growth inhibition) at 200 ppm (Euschistus heros) | mortality at 200 ppm (Myzus persicae) | percent effect (mortality or growth inhibition) at 200 ppm (Plutella xylostella) | mortality at 200 ppm (Spodoptera littoralis) | mortality at 200 ppm (Tetranychus urticae) | mortality at 200 ppm (Thrips tabaci)

CNS(=O)(=O)N1C[C@H](NC(=O)c2ccc(C3=NO[C@@](c4ccc(F)c(C(F)(F)F)c4)(C(F)(F)F)C3)cc2C)CO1 [Compound A181]
≥ 80%: percent effect (mortality or growth inhibition) at 200 ppm (Diabrotica balteata) | percent effect (mortality or growth inhibition) at 200 ppm (Euschistus heros) | mortality at 200 ppm (Myzus persicae) | percent effect (mortality or growth inhibition) at 200 ppm (Plutella xylostella) | mortality at 200 ppm (Spodoptera littoralis) | mortality at 200 ppm (Tetranychus urticae) | mortality at 200 ppm (Thrips tabaci)

O=C(N[C@H]1CON(S(=O)(=O)NC2CC2)C1)c1ccc(C2=NO[C@@](c3cc(Cl)cc(Cl)c3)(C(F)(F)F)C2)cc1Cl [Compound A154]
≥ 80%: percent effect (mortality or growth inhibition) at 200 ppm (Diabrotica balteata) | percent effect (mortality or growth inhibition) at 200 ppm (Euschistus heros) | mortality at 200 ppm (Myzus persicae) | percent effect (mortality or growth inhibition) at 200 ppm (Plutella xylostella) | mortality at 200 ppm (Spodoptera littoralis) | mortality at 200 ppm (Tetranychus urticae) | mortality at 200 ppm (Thrips tabaci)

CS(=O)(=O)N1CC(NC(=O)c2ccc(C3=NO[C@@](c4cc(Cl)c(Cl)c(Cl)c4)(C(F)(F)F)C3)cc2Cl)CO1 (stereo partly drawn) [Compound A15, 2-chloro-N-(2-methylsulfonylisoxazolidin-4-yl)-4-[(5S)-5-(3,4,5-trichlorophenyl)-5-(trifluoromethyl)-4H-isoxazol-3-yl]benzamide]
≥ 80%: percent effect (mortality or growth inhibition) at 200 ppm (Diabrotica balteata) | percent effect (mortality or growth inhibition) at 200 ppm (Euschistus heros) | mortality at 200 ppm (Myzus persicae) | percent effect (mortality or growth inhibition) at 200 ppm (Plutella xylostella) | mortality at 200 ppm (Spodoptera littoralis) | mortality at 200 ppm (Tetranychus urticae) | mortality at 200 ppm (Thrips tabaci)

Cc1cc(C2=NO[C@@](c3cc(Cl)cc(Cl)c3)(C(F)(F)F)C2)ccc1C(=O)N[C@@H]1CON(S(=O)(=O)CC(=O)O)C1 [Compound A174, 2-[[(4S)-4-[[4-[(5S)-5-(3,5-dichlorophenyl)-5-(trifluoromethyl)-4H-1,2-oxazol-3-yl]-2-methylbenzoyl]amino]-1,2-oxazolidin-2-yl]sulfonyl]acetic acid]
≥ 80%: percent effect (mortality or growth inhibition) at 200 ppm (Diabrotica balteata) | percent effect (mortality or growth inhibition) at 200 ppm (Euschistus heros) | mortality at 200 ppm (Myzus persicae) | percent effect (mortality or growth inhibition) at 200 ppm (Plutella xylostella) | mortality at 200 ppm (Spodoptera littoralis) | mortality at 200 ppm (Tetranychus urticae) | mortality at 200 ppm (Thrips tabaci)

CCNS(=O)(=O)N1C[C@@H](NC(=O)c2ccc(C3=NO[C@@](c4cc(Cl)c(F)c(Cl)c4)(C(F)(F)F)C3)cc2Cl)CO1 [Compound A124, 2-chloro-4-[(5S)-5-(3,5-dichloro-4-fluoro-phenyl)-5-(trifluoromethyl)-4H-isoxazol-3-yl]-N-[(4R)-2-(ethylsulfamoyl)isoxazolidin-4-yl]benzamide]
≥ 80%: percent effect (mortality or growth inhibition) at 200 ppm (Diabrotica balteata) | percent effect (mortality or growth inhibition) at 200 ppm (Euschistus heros) | mortality at 200 ppm (Myzus persicae) | percent effect (mortality or growth inhibition) at 200 ppm (Plutella xylostella) | mortality at 200 ppm (Spodoptera littoralis) | mortality at 200 ppm (Tetranychus urticae) | mortality at 200 ppm (Thrips tabaci)

Cc1cc(C2=NO[C@@](c3cc(Cl)c(F)c(Cl)c3)(C(F)(F)F)C2)ccc1C(=O)N[C@H]1CON(S(=O)(=O)N2CCC2)C1 [Compound A148]
≥ 80%: percent effect (mortality or growth inhibition) at 200 ppm (Diabrotica balteata) | percent effect (mortality or growth inhibition) at 200 ppm (Euschistus heros) | mortality at 200 ppm (Myzus persicae) | percent effect (mortality or growth inhibition) at 200 ppm (Plutella xylostella) | mortality at 200 ppm (Spodoptera littoralis) | mortality at 200 ppm (Tetranychus urticae) | mortality at 200 ppm (Thrips tabaci)

Cc1cc(C2=NO[C@@](c3cc(Cl)c(C(F)F)c(Cl)c3)(C(F)(F)F)C2)ccc1C(=O)N[C@@H]1CON(S(=O)(=O)N(C)C)C1 [Compound A196, 4-[(5S)-5-[3,5-dichloro-4-(difluoromethyl)phenyl]-5-(trifluoromethyl)-4H-1,2-oxazol-3-yl]-N-[(4S)-2-(dimethylsulfamoyl)-1,2-oxazolidin-4-yl]-2-methylbenzamide]
≥ 80%: percent effect (mortality or growth inhibition) at 200 ppm (Diabrotica balteata) | percent effect (mortality or growth inhibition) at 200 ppm (Euschistus heros) | mortality at 200 ppm (Myzus persicae) | percent effect (mortality or growth inhibition) at 200 ppm (Plutella xylostella) | mortality at 200 ppm (Spodoptera littoralis) | mortality at 200 ppm (Tetranychus urticae) | mortality at 200 ppm (Thrips tabaci)

Cc1cc(C2=NO[C@@](c3cc(Cl)c(F)c(Cl)c3)(C(F)(F)F)C2)ccc1C(=O)NC1CON(S(=O)(=O)N2CCCC2)C1 (stereo partly drawn) [Compound A99, 4-[(5S)-5-(3,5-dichloro-4-fluoro-phenyl)-5-(trifluoromethyl)-4H-isoxazol-3-yl]-2-methyl-N-(2-pyrrolidin-1-ylsulfonylisoxazolidin-4-yl)benzamide]
≥ 80%: percent effect (mortality or growth inhibition) at 200 ppm (Diabrotica balteata) | percent effect (mortality or growth inhibition) at 200 ppm (Euschistus heros) | mortality at 200 ppm (Myzus persicae) | percent effect (mortality or growth inhibition) at 200 ppm (Plutella xylostella) | mortality at 200 ppm (Spodoptera littoralis) | mortality at 200 ppm (Tetranychus urticae) | mortality at 200 ppm (Thrips tabaci)

Cc1cc(C2=NO[C@@](c3cc(Cl)c(F)c(Cl)c3)(C(F)(F)F)C2)ccc1C(=O)N[C@@H]1CON(S(N)(=O)=O)C1 [Compound A208, 4-[(5S)-5-(3,5-dichloro-4-fluorophenyl)-5-(trifluoromethyl)-4H-1,2-oxazol-3-yl]-2-methyl-N-[(4S)-2-sulfamoyl-1,2-oxazolidin-4-yl]benzamide]
≥ 80%: percent effect (mortality or growth inhibition) at 200 ppm (Diabrotica balteata) | mortality at 200 ppm (Myzus persicae) | percent effect (mortality or growth inhibition) at 200 ppm (Plutella xylostella) | mortality at 200 ppm (Spodoptera littoralis) | mortality at 200 ppm (Tetranychus urticae) | mortality at 200 ppm (Thrips tabaci)

Cc1cc(C2=NO[C@@](c3cc(Cl)c(Cl)c(Cl)c3)(C(F)(F)F)C2)ccc1C(=O)NC1CON(S(=O)(=O)C2CC2)C1 (stereo partly drawn) [Compound A29, N-(2-cyclopropylsulfonylisoxazolidin-4-yl)-2-methyl-4-[(5S)-5-(3,4,5-trichlorophenyl)-5-(trifluoromethyl)-4H-isoxazol-3-yl]benzamide]
≥ 80%: percent effect (mortality or growth inhibition) at 200 ppm (Diabrotica balteata) | mortality at 200 ppm (Myzus persicae) | percent effect (mortality or growth inhibition) at 200 ppm (Plutella xylostella) | mortality at 200 ppm (Spodoptera littoralis) | mortality at 200 ppm (Tetranychus urticae) | mortality at 200 ppm (Thrips tabaci)
